Read-outs that look alike come from different tables or passages of the source.
Assays:
expanded OPCs = test: cells; conditions: for viability at 0.1 µM / viability at 1 µM / viability at 10 µM: Rattus norvegicus, 72 h; for 0.1 µM (% DMSO) / 1 µM (% DMSO) / 10 µM (% DMSO): alamarBlue viability of expanded OPCs, relative to DMSO control; for 0.1 µM (% DMSO): compound at 0.1 µM; for 1 µM (% DMSO): compound at 1 µM; for 10 µM (% DMSO): compound at 10 µM
Summary of the method: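 Expanded OPCs seeded at 10,000 cells/well in differentiation media, then exposed to NCC library compounds at 10, 1 and 0.1 µM (quadruplicate, 0.1% DMSO) for three days. Viability read as alamarBlue fluorescence (560/590 nm) after 4 h at 37 °C; tunicamycin 5 ng/ml served as toxicity control.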

[1] = system: acutely dissociated and purified rat OPCs; test: Acute OL differentiation assay (MBP expression/cell, immunofluorescent image quantification); type: cell-based; conditions: Rattus norvegicus, sheet "All OLga data"
Summary of the method: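 Oligodendrocyte precursor cells were enriched from P6-P7 Sprague–Dawley rat brains by immunopanning (RAN-2 and GalC depletion, O4 selection), plated at 5000 cells/well in serum-free, mitogen-free differentiation media on PDL/laminin 96-well view plates, centrifuged at 200×g, and pre-incubated 1–2 h before test compounds were added in quadruplicate. On DIV4, cells were fixed, stained for MBP and DAPI, imaged automatically, and MBP expression per cell was quantified.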

[2] = read-out: 0.1 µM (% DMSO), alamarBlue viability of expanded OPCs, compound at 0.1 µM, sheet All Tox data
[3] = read-out: 1 µM (% DMSO), alamarBlue viability of expanded OPCs, compound at 1 µM, sheet All Tox data
[4] = read-out: 10 µM (% DMSO), alamarBlue viability of expanded OPCs, compound at 10 µM, sheet All Tox data
[5] = 2 uM test compound, relative to quetiapine, read-out: OL differentiation, 2 uM (% Quet)
[6] = 10 uM test compound, relative to quetiapine, read-out: OL differentiation, 10 uM (% Quet)
[7] = read-out: 0.1 µM (% DMSO), alamarBlue viability, NCC library compound at 0.1 µM, sheet "All Tox data"
[8] = read-out: 1 µM (% DMSO), alamarBlue viability, NCC library compound at 1 µM, sheet "All Tox data"
[9] = read-out: 10 µM (% DMSO), alamarBlue viability, NCC library compound at 10 µM, sheet "All Tox data"
[10] = 0.4 uM test compound, relative to quetiapine, read-out: OL differentiation, 0.4 uM (% Quet)
[11] = test compound at 2 uM, NCC library screen, relative to quetiapine, read-out: 2 uM (% Quet)
[12] = test compound at 10 uM, NCC library screen, relative to quetiapine, read-out: 10 uM (% Quet)
[13] = test compound at 2 uM, MBP expression relative to quetiapine, NCC library screen, read-out: 2 uM (% Quet)
[14] = test compound at 10 uM, MBP expression relative to quetiapine, NCC library screen, read-out: 10 uM (% Quet)

Structure (SMILES)	viability at 0.1 µM (expanded OPCs; [2]) [%]	viability at 1 µM (expanded OPCs; [3]) [%]	viability at 10 µM (expanded OPCs; [4]) [%]	activation at 2 µM [1, 5] [%]	activation at 10 µM [1, 6] [%]	viability at 0.1 µM (expanded OPCs; [7]) [%]	viability at 1 µM (expanded OPCs; [8]) [%]	viability at 10 µM (expanded OPCs; [9]) [%]	activation at 2 µM [1, 11] [%]	activation at 10 µM [1, 12] [%]	also measured
C=CC[C@@H]1/C=C(\C)C[C@H](C)C[C@H](OC)[C@H]2O[C@@](O)(C(=O)C(=O)N3CCCC[C@H]3C(=O)O[C@H](/C(C)=C/[C@@H]3CC[C@@H](O)[C@H](OC)C3)[C@H](C)[C@@H](O)CC1=O)[C@H](C)C[C@@H]2OC [Tacrolimus]	94.6	102	109	-39.9	-53.9						
CN1CC(=O)N2[C@H](c3ccc4c(c3)OCO4)c3[nH]c4ccccc4c3C[C@@H]2C1=O [Tadalafil]	99.2	93	93.9	21.4	-16						
O=C1c2c(O)cc(O)cc2OC(c2ccc(O)c(O)c2)C1O (stereo not drawn) [Taxifolin]	96.4	93.7	88.7	-1.7	-59						
O=c1[nH]c(=O)n(C2CCCO2)cc1F (stereo not drawn) [Tegafur]	88.4	92.6	99.3	-23.9	-28						
[H]/N=C(/NCCCCC)N/N=C/c1c[nH]c2ccc(OC)cc12 [Tegaserod]						88.5	33.1	11.5			activation at 0.08 µM ([1]; 0.08 uM test compound, relative to quetiapine, read-out: OL differentiation, 0.08 uM (% Quet)): -15.2%; activation at 0.4 µM [1, 10]: -63.1%
CC[C@H]1OC(=O)[C@H](C)C(=O)[C@H](C)[C@@H](O[C@@H]2O[C@H](C)C[C@H](N(C)C)[C@H]2O)[C@](C)(OC)C[C@@H](C)C(=O)[C@H](C)[C@H]2N(CCCCn3cnc(-c4cccnc4)c3)C(=O)O[C@]12C [Telithromycin]						98.4	105	94	17.7	10.4	
CCCc1nc2c(C)cc(-c3nc4ccccc4n3C)cc2n1Cc1ccc(-c2ccccc2C(=O)O)cc1 [Telmisartan]						95.6	82.3	53.3	-6.1	-61.8	
Cn1nnc2c(C(N)=O)ncn2c1=O [Temozolomide]	105	94.7	100	-10.2	-8.5						
COc1cc2nc(N3CCN(C(=O)C4CCCO4)CC3)nc(N)c2cc1OC (stereo not drawn) [Terazosin]	81.1	80.8	78.7	-2.4	8.7						0.1 µM (% DMSO) (expanded OPCs): 93.3 % DMSO; 1 µM (% DMSO) (expanded OPCs): 94.6 % DMSO; 10 µM (% DMSO) (expanded OPCs): 74.1 % DMSO; activation at 2 µM [1, 13]: -10.8%; activation at 10 µM [1, 14]: -37.2%
CN(C/C=C/C#CC(C)(C)C)Cc1cccc2ccccc12 [Terbinafine]				-91.1		90.5	92.2	11			activation at 0.4 µM [1, 10]: -31.1%
CC(C)(C)NCC(O)c1cc(O)cc(O)c1 (stereo not drawn) [Terbutaline]											0.1 µM (% DMSO) (expanded OPCs): 91.9 % DMSO; 1 µM (% DMSO) (expanded OPCs): 95.2 % DMSO; 10 µM (% DMSO) (expanded OPCs): 89.9 % DMSO; activation at 2 µM [1, 13]: 8.9%; activation at 10 µM [1, 14]: 12.1%
O=C1CCC(N2C(=O)c3ccccc3C2=O)C(=O)N1 (stereo not drawn) [Thalidomide]						110	92.4	99.3	-9.1	-26.7	
Cn1c(=O)c2[nH]cnc2n(C)c1=O [Theophylline]									-12	6.9	0.1 µM (% DMSO) (expanded OPCs): 91.7 % DMSO; 1 µM (% DMSO) (expanded OPCs): 95.8 % DMSO; 10 µM (% DMSO) (expanded OPCs): 88.9 % DMSO
c1ccc2[nH]c(-c3cscn3)nc2c1 [Thiabendazole]						98	97.1	109	14.9	36.7	
CSc1ccc2c(c1)N(CCC1CCCCN1C)c1ccccc1S2 (stereo not drawn) [Thioridazine]						53.8	24.4	9.4			activation at 0.08 µM ([1]; test compound at 0.08 uM, NCC library screen, relative to quetiapine, read-out: 0.08 uM (% Quet)): -4.7%; activation at 0.4 µM ([1]; test compound at 0.4 uM, NCC library screen, relative to quetiapine, read-out: 0.4 uM (% Quet)): -158%
CN1CCN(CC/C=C2/c3ccccc3Sc3ccc(S(=O)(=O)N(C)C)cc32)CC1 [Thiothixene]											0.1 µM (% DMSO) (expanded OPCs): 81.2 % DMSO; 1 µM (% DMSO) (expanded OPCs): 49.9 % DMSO; 10 µM (% DMSO) (expanded OPCs): 16.9 % DMSO; activation at 0.08 µM ([1]; test compound at 0.08 uM, MBP expression relative to quetiapine, NCC library screen, read-out: 0.08 uM (% Quet)): 45.9%; activation at 0.4 µM ([1]; test compound at 0.4 uM, MBP expression relative to quetiapine, NCC library screen, read-out: 0.4 uM (% Quet)): 24%
Cc1ccsc1C(=CCCN1CCC[C@@H](C(=O)O)C1)c1sccc1C [Tiagabine]	99.9	89.2	92.7	-1.8	8.7						
C#C[C@]1(O)CC[C@H]2[C@@H]3[C@H](C)CC4=C(CCC(=O)C4)[C@H]3CC[C@@]21C [Tibolone]						84.8	85.4	77.4	6.5	-6.7	
CC(C)(C)NC[C@H](O)COc1nsnc1N1CCOCC1 [Timolol]						99.5	89.9	92.8	-5.6	-24.3	
CCS(=O)(=O)CCn1c([N+](=O)[O-])cnc1C [Tinidazole]						91.7	95.3	97.1	-10.8	10.4	
Clc1ccc2nsnc2c1NC1=NCCN1 [Tizanidine]											0.1 µM (% DMSO) (expanded OPCs): 92.8 % DMSO; 1 µM (% DMSO) (expanded OPCs): 97.3 % DMSO; 10 µM (% DMSO) (expanded OPCs): 87.9 % DMSO; activation at 2 µM [1, 13]: 13.7%; activation at 10 µM [1, 14]: -4.2%
Cc1cccc(C)c1NC(=O)C(C)N (stereo not drawn) [Tocainide]	94.9	96.2	98	1.2	-23.2						
Cc1ccc(S(=O)(=O)NC(=O)NN2CCCCCC2)cc1 [Tolazamide]									-14.2	-2	0.1 µM (% DMSO) (expanded OPCs): 100.3 % DMSO; 1 µM (% DMSO) (expanded OPCs): 95.8 % DMSO; 10 µM (% DMSO) (expanded OPCs): 99.9 % DMSO

From paper PMC5011342, “A high throughput drug screening assay to identify compounds that promote oligodendrocyte differentiation using acutely dissociated and purified oligodendrocyte precursor cells” (BMC Research Notes, 2016)
